pIC50: −log10 of the molar value. Read-outs that look alike come from different tables or passages of the source.
Legend:
α4β1 = α4β1 (Homo sapiens, UniProt P05556+P13612); assay: Ramos Cell Adhesion Assay (α4β1 Mediated Adhesion/VCAM-1); format: cell-based; parameters: Ramos Cell Adhesion Assay (α4β1 Mediated Adhesion/VCAM-1); endogenous in cells; host or cells: Ramos cells
Procedure: Ramos Cell Adhesion Assay (α4β1 Mediated Adhesion/VCAM-1)
Immulon 96 well plates (Dynex) were coated with 100 μL recombinant hVCAM-1 at 4.0 μg/mL in 0.05 M NaCO3 buffer pH 9.0 overnight at 4° C. (R&D Systems). Plates were washed 3 times in PBS with 1% BSA and blocked for 1 h @ room temperature in this buffer. PBS was removed and compounds to be tested (50 μL) were added at 2× concentration. Ramos cells, (50 μL at 2×10^6/mL) labeled with 5 μM Calcein AM (Molecular Probes) for 1 h at 37° C., were added to each well and allowed to adhere for 1 h at room temperature. Plates were washed 3× in PBS+1% BSA and cells were lysed for 15 minutes in 100 μL of 1 M Tris pH 8.0 with 1% SDS. The plate was read at 485 nm excitation and 530 nm emission.

human α4β7 integrin = molecular target: T1, human α4β7 integrin (Homo sapiens, UniProt P13612+P26010); assay: α4β7-K562 Cell Adhesion Assay (α4β7 Mediated Adhesion/MAdCAM-1); format: cell-based
T1 construct: expressed in transfected cells; host or cells: K562 cells, stably transfected
T1 sequence (P13612 34-1032): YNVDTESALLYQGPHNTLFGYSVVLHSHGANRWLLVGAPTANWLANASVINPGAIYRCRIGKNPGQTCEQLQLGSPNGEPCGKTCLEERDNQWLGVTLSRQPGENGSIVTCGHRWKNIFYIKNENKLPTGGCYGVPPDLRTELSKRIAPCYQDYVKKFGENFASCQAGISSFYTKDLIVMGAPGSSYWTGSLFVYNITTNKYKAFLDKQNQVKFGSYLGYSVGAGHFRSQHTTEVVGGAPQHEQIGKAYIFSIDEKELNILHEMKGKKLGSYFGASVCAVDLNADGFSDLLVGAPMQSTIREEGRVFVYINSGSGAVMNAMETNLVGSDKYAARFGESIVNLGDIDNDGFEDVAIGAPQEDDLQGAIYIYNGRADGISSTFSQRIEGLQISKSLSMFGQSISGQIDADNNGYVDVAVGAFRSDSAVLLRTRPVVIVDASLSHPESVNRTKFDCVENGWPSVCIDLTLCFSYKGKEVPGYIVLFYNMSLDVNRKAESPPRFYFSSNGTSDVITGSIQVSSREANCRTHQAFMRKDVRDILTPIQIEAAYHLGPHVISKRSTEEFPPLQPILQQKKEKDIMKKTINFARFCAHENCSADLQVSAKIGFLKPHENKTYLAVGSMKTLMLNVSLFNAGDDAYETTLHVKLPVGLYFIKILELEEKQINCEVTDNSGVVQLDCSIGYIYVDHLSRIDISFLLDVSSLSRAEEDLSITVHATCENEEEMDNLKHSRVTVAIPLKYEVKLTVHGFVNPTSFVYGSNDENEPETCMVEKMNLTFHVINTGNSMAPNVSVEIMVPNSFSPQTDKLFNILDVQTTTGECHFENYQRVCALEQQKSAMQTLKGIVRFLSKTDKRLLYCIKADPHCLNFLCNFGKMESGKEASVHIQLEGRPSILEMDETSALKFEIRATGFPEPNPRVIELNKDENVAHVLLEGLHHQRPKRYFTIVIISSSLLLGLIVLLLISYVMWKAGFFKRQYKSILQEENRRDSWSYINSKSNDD
T1 sequence (P26010 20-798): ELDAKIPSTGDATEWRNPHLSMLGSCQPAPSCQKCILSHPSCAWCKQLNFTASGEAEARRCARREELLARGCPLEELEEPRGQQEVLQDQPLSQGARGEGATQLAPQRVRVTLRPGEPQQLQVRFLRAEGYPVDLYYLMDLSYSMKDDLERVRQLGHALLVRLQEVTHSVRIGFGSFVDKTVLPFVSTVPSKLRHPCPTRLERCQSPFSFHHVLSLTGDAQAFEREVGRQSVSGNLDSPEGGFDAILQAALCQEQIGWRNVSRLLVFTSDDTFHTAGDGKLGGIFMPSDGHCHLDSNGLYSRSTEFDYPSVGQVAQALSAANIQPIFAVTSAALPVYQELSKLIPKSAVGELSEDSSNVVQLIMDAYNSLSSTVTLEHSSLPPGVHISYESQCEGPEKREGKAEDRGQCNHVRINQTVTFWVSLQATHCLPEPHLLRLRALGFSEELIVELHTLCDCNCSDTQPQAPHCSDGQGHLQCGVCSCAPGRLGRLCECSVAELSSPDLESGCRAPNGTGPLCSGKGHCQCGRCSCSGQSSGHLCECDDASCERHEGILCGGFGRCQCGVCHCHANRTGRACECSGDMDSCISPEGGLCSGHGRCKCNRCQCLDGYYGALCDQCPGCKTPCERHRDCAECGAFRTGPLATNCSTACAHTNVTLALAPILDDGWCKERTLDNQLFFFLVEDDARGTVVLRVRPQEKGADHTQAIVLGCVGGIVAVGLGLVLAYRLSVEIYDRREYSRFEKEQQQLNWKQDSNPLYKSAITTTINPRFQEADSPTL
Procedure: α4β7-K562 Cell Adhesion Assay (α4β7 Mediated Adhesion/MAdCAM-1)
M2 anti-FLAG antibody coated 96-well plates (Sigma) were coated for 1 hour at 4° C. with 2-8 μl/well recombinant FLAG-hMAdCAM-1 contained in 100 μL of Dulbecco's PBS, pH 7.4, with 1% BSA and 1 mM Mn^2+ (PBS-BSA-Mn). Plates were washed once with PBS-BSA-Mn. Buffer was removed and compounds to be tested (50 μL) were added at 2 times concentration. Stably transfected K562 cells expressing human α4β7 integrin, (50 μL at 2×10^6/mL) that had been labeled with 100 μg/mL carboxymethyl fluorescein diacetate succinimidyl ester (CFDA-SE; Molecular Probes) for 15 min at 37° C. were added to each well and allowed to adhere for 1 h at room temperature. Plates were washed 4 times in PBS-BSA-Mn and then cells were lysed for 2 minutes by addition of 100 μL of PBS without Ca, Mg supplemented with 0.1 M NaOH. The plate was read on a 96-well fluorescent plate reader at 485 nm excitation and 530 nm emission.

[1] = Ramos cells adhering to recombinant hVCAM-1, read-out: α4β1 IC50
[2] = K562 cells expressing human α4β7 adhering to FLAG-hMAdCAM-1, 1 mM Mn2+, read-out: α4β7, Madcam IC50

Sequence of α4β1 (P05556 21-798, one chain of several): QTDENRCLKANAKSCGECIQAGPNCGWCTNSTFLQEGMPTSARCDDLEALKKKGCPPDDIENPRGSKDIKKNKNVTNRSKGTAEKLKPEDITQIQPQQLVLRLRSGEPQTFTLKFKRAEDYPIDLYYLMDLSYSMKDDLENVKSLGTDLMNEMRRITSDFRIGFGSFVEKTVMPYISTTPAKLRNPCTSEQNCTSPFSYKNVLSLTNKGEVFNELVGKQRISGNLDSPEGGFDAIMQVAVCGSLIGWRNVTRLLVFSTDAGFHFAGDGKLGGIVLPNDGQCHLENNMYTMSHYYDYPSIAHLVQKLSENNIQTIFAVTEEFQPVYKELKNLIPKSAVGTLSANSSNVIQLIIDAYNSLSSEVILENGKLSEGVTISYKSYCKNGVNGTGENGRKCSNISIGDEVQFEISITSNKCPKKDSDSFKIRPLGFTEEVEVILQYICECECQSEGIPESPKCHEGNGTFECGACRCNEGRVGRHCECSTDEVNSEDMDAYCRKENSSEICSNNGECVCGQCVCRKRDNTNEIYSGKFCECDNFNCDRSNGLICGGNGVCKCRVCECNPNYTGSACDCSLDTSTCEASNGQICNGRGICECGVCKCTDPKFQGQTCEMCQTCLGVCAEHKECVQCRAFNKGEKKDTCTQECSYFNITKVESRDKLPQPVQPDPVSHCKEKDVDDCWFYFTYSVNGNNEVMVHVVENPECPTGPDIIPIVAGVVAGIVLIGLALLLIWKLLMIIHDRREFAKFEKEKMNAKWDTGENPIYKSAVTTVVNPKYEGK

SMILES | pIC50 (α4β1; [1]) | pIC50 (human α4β7 integrin; [2]) | pIC50 (α4β1) | pIC50 (human α4β7 integrin)
CN(C)C(=O)Oc1ccc(C[C@H](NC(=O)C2CCCc3nnc(-c4ccccc4)n32)C(=O)O)cc1 (stereo partly drawn) [Cpd 1, 3-(4-Dimethylcarbamoyloxy-phenyl)-2-(S)-[(3-phenyl-5,6,7,8-tetrahydro-[1,2,4]triazolo[4,3-a]pyridine-5-carbonyl)-amino]-propionic acid] | – | – | 5.48 | 5.91
CN(C)C(=O)Oc1ccc(C[C@H](NC(=O)C2CCCc3nnc(Cc4ccccc4)n32)C(=O)O)cc1 (stereo partly drawn) [Cpd 2, 2-(S)-[(3-Benzyl-5,6,7,8-tetrahydro-[1,2,4]triazolo[4,3-a]pyridine-5-carbonyl)-amino]-3-(4-dimethylcarbamoyloxy-phenyl)-propionic acid] | – | – | 5.29 | 5.78
CN(C)C(=O)Oc1ccc(C[C@H](NC(=O)[C@@H]2CCc3nnc(Cc4ccccc4)n32)C(=O)O)cc1 [Cpd 3, 2-(S)-[(3-Benzyl-6,7-dihydro-5H -pyrrolo[2,1-c][1,2,4]triazole-5-(S)-carbonyl)-amino]-3-(4-dimethylcarbamoyloxy-phenyl)-propionic acid] | – | – | 5.38 | < 5.30
O=C(Nc1ccc(C[C@H](NC(=O)[C@@H]2CCc3nnc(Cc4ccsc4)n32)C(=O)O)cc1)c1c(Cl)cccc1Cl [Cpd 12, 3-[4-(2,6-Dichloro-benzoylamino)-phenyl]-2-(S)-[(3-thiophen-3-ylmethyl-6,7-dihydro-5H-pyrrolo[2,1-c][1,2,4]triazole-5-(S)-carbonyl)-amino]-propionic acid] | 6.42 | 6.92 | – | –
COc1cccc(OC)c1-c1ccc(C[C@H](NC(=O)[C@@H]2CCc3nnc(Cc4ccccc4)n32)C(=O)O)cc1 [Cpd 13, 2-(S)-[(3-Benzyl-6,7-dihydro-5H-pyrrolo[2,1-c][1,2,4]triazole-5-(S)-carbonyl)-amino]-3-(2′,6′-dimethoxy-biphenyl-4-yl)-propionic acid] | 5.92 | 6.49 | – | –
COc1cccc(OC)c1-c1ccc(C[C@H](NC(=O)[C@@H]2CCc3nnc(Cc4ccsc4)n32)C(=O)O)cc1 [Cpd 15, 3-(2′,6′-Dimethoxy-biphenyl-4-yl)-2-(S)-[(3-thiophen-3-ylmethyl-6,7-dihydro-5H-pyrrolo[2,1-c][1,2,4]triazole-5-(S)-carbonyl)-amino]-propionic acid] | 6.15 | 7.05 | – | –

More lines, main results first:

pIC50 (α4β1; [1]) | pIC50 (human α4β7 integrin; [2]) | SMILES | pIC50 (α4β1) | pIC50 (human α4β7 integrin)
6.21 | 6.54 | O=C(Nc1ccc(C[C@H](NC(=O)[C@@H]2CCc3nnc(Cc4ccccc4)n32)C(=O)O)cc1)c1c(Cl)cccc1Cl [Cpd 4, 2-(S)-[(3-Benzyl-6,7-dihydro-5H-pyrrolo[2,1-c][1,2,4]triazole-5-(S)-carbonyl)-amino]-3-[4-(2,6-dichloro-benzoylamino)-phenyl]-propionic acid] | – | –
< 5.30 | < 5.30 | O=C(Nc1ccc(C[C@H](NC(=O)[C@@H]2CCc3nnc(Cc4ccccc4)n32)C(=O)O)cc1)c1cccc2ccccc12 [Cpd 5, 2-(S)-[(3-Benzyl-6,7-dihydro-5H-pyrrolo[2,1-c][1,2,4]triazole-5-(S)-carbonyl)-amino]-3-{4-[(naphthalene-1-carbonyl)-amino]-phenyl}-propionic acid] | – | –
< 5.30 | < 5.30 | O=C(Nc1ccc(C[C@H](NC(=O)[C@@H]2CCc3nnc(Cc4ccccc4)n32)C(=O)O)cc1)c1ccc2ccccc2c1 [Cpd 6, 2-(S)-[(3-Benzyl-6,7-dihydro-5H-pyrrolo[2,1-c][1,2,4]triazole-5-(S)-carbonyl)-amino]-3-{4-[(naphthalene-2-carbonyl)-amino]-phenyl}-propionic acid] | – | –
< 5.30 | < 5.30 | CCOc1ccc2ccccc2c1C(=O)Nc1ccc(C[C@H](NC(=O)[C@@H]2CCc3nnc(Cc4ccccc4)n32)C(=O)O)cc1 [Cpd 7, 2-(S)-[(3-Benzyl-6,7-dihydro-5H-pyrrolo[2,1-c][1,2,4]triazole-5-(S)-carbonyl)-amino]-3-{4-[(2-ethoxy-naphthalene-1-carbonyl)-amino]-phenyl}-propionic acid] | – | –
5.81 | 6.46 | O=C(Nc1ccc(C[C@H](NC(=O)[C@@H]2CCc3nnc(Cc4ccccc4)n32)C(=O)O)cc1)c1cccc2c1-c1ccccc1C2=O [Cpd 8, 2-(S)-[(3-Benzyl-6,7-dihydro-5H-pyrrolo[2,1-c][1,2,4]triazole-5-(S)-carbonyl)-amino]-3-{4-[(9-oxo-9H-fluorene-4-carbonyl)-amino]-phenyl}-propionic acid] | – | –
7.10 | 7.70 | O=C(Nc1ccc(C[C@H](NC(=O)[C@@H]2CCc3nnc(Cc4ccccc4)n32)C(=O)O)cc1)c1c(Cl)cncc1Cl [Cpd 9, 2-(S)-[(3-Benzyl-6,7-dihydro-5H-pyrrolo[2,1-c][1,2,4]triazole-5-(S)-carbonyl)-amino]-3-{4-[(3,5-dichloro-pyridine-4-carbonyl)-amino]-phenyl}-propionic acid] | – | –
5.98 | 7.10 | CCCc1nnc2n1[C@H](C(=O)N[C@@H](Cc1ccc(NC(=O)c3c(Cl)cccc3Cl)cc1)C(=O)O)CC2 [Cpd 10, 3-[4-(2,6-Dichloro-benzoylamino)-phenyl]-2-(S)-[(3-propyl-6,7-dihydro-5H-pyrrolo[2,1-c][1,2,4]triazole-5-(S)-carbonyl)-amino]-propionic acid] | – | –
< 5.30 | 6.26 | O=C(NCc1nnc2n1[C@H](C(=O)N[C@@H](Cc1ccc(NC(=O)c3c(Cl)cccc3Cl)cc1)C(=O)O)CC2)OCc1ccccc1 [Cpd 11, 2-(S)-{[3-(Benzyloxycarbonylamino-methyl)-6,7-dihydro-5H-pyrrolo[2,1-c][1,2,4]triazole-5-(S)-carbonyl]-amino}-3-[4-(2,6-dichloro-benzoylamino)-phenyl]-propionic acid] | – | –
